The numbers were not newly measured in patent US8960128B2, “Topical anesthetic composition” (Animal Ethics Pty Ltd, priority 2005, dated 2015), which cites them from elsewhere.

The conditions of data set [1]: typically up to about; depending on the method of administration.
The conditions of data set [2]: sheep, topically applied.

Consider `CCCCN1CCCCC1C(=O)Nc1c(C)cccc1C` (centres unmarked) [bupivacaine], for which, in data set [1], the duration of anesthesia is 6 to 12 h. Consider `CCN(CC)CC(=O)Nc1c(C)cccc1C` [lignocaine], for which the “total dose that should not be exceeded” value in data set [2] was no more than 50 mg/kg.
